“Also recorded” adds a separate entry of the source.
Key:
JNK = assay: Phosphorylation of JNK in oocytes of primordial follicles, western blot and immunostaining; assay type: in vivo, CD-1 female mice; settings: for activation of JNK in the oocytes of primordial follicles: general statement, no dose given
CD-1 female mice = assay: Ovarian cyclicity by vaginal smear in 21-day-old treated mice; assay type: in vivo; settings: 21-day-old mice, last 14 days of 6 weeks post treatment
From the text: The transition of various estrous cycle stages of three representative mice (a total of 6-8 mice in each group) are shown for each treatment group, including proestrus, estrus, metestrus, and diestrus.
Ovarian cyclicity was next examined by the method of vaginal smear in the last 14 days of the 6-week post DOX / SP600125 treatment.

ovarian follicles = assay: Follicle counting 6 weeks after treatment of 21-day-old mice; assay type: in vivo, CD-1 female mice
From the text: Ovarian functions were examined at 6-weeks after treatment in order to evaluate the long-term effect of pharmacological JNK inhibition on female ovarian reserve and other ovary reproductive outcomes.

γ-H2AX = assay: Ovarian expression of γ-H2AX (DNA damage marker) after DOX, immunostaining and western blot; assay type: in vivo
Method: (§1) FIG. 2B provides a western blot showing expression of γH2AX and pTAp63α at 3 h and 6 h. The mobility shift of TAp63α indicated phosphorylation (i.e., p-TAp63α), which further indicated cell death initiation through apoptosis.
Expression of γ-H2AX, a well-characterized biomarker of DNA double strand breaks (DDSBs) as well as the major mechanism of DOX’s cytotoxicity on tumorous cells, was detected with administration of DOX.

[1] = system: JNK (c-Jun N-terminal kinase) signaling pathway; assay: RNA sequencing / Gene Ontology analysis of ovaries after DOX; assay type: in vivo, CD-1 female mice; settings: 5-day-old mice, DOX 10 mg/kg i.p., ovaries at 6 hours
Method: Thus, the molecular mechanisms of DOX-induced primordial follicle oocyte apoptosis were investigated as described herein. Fiveday-old CD-1 female mice were intraperitoneally injected with vehicle or 10 mg/kg DOX and ovaries were harvested at 6 hours for RNA sequencing.

TAp63α = assay: Phosphorylation of TAp63α in ovaries, immunostaining and western blot; assay type: in vivo, CD-1 female mice
Method: as §1
TAp63a functions to respond to DNA damage that results in its phosphorylation and subsequent oocyte apoptosis initiation in the primordial follicles.
(§2) Next, 5-day-old CD-1 female mice were intraperitoneally injected with 10 mg/kg DOX and 50 mg/kg SP600125, a specific JNK inhibitor.

Bax, Puma, Noxa = assay: qRT-PCR of apoptosis mediators in whole neonatal ovaries; assay type: in vivo, CD-1 female mice; settings: co-treatment with DOX
Method: as §2

primordial follicles = assay: DOX-induced primordial follicle loss in 5-day-old mice; assay type: in vivo, CD-1 female mice; settings: co-treatment SP600125 50 mg/kg with DOX 10 mg/kg i.p.
Method: as §2

Structure (SMILES)	activation of JNK in the oocytes of primordial follicles (JNK)	ovarian cyclicity (estrous cycle stages) (CD-1 female mice; DOX alone)	numbers of all stages of ovarian follicles (primordial, primary, secondary, antral) (ovarian follicles; DOX alone)	expression of γ-H2AX in ovarian epithelial cells and oocytes (γ-H2AX; DOX 10 mg/kg i.p., 6 h)	time at which increased γ-H2AX expression peaked (γ-H2AX; after DOX treatment, western blot) [h]	JNK signaling pathway by RNA sequencing Gene Ontology analysis [1]	phosphorylation of TAp63a in ovaries (TAp63α; 6 h after DOX treatment, western blot)	expression of phospho-p63 in oocytes of primordial follicles (TAp63α; 6 h post DOX treatment, immunostaining)	phosphorylation of JNK in the oocytes of primordial follicles (JNK; 5-day-old mice, DOX 10 mg/kg i.p., 6 h)	ovarian cyclicity (estrous cycle stages) (CD-1 female mice; DOX / SP600125 co-treatment)	ovarian cyclicity (estrous cycle stages) (CD-1 female mice; SP600125 alone)	effect on DOX-induced transcriptional induction of Bax (Bax, Puma, Noxa)	effect on DOX-induced transcriptional induction of Noxa (Bax, Puma, Noxa)	effect on DOX-induced transcriptional induction of Puma (Bax, Puma, Noxa)	effect on DOX-induced primordial follicle loss (primordial follicles)	numbers of all staged follicles (ovarian follicles; SP600125 alone)	effect on DOX-induced reduction of all stages of follicles (ovarian follicles; co-treatment with DOX)	effect on DOX-induced hyper-phosphorylation of TAp63α (TAp63α; 5-day-old mice, SP600125 50 mg/kg i.p. with DOX 10 mg/kg i.p., western blot)	effect on cisplatin-induced phosphorylation of TAp63α (TAp63α; 5-day-old mouse ovaries, SP600125 50 mg/kg i.p. with cisplatin 20 mg/kg i.p.)
N.N.[Cl][Pt][Cl] [cisplatin, cis-diammineplatinum (II) dichloride]	selectively activate	–	–	–	–	–	–	–	–	–	–	–	–	–	–	–	–	–	–
COc1cccc2c1C(=O)c1c(O)c3c(c(O)c1C2=O)C[C@@](O)(C(=O)CO)C[C@@H]3O[C@H]1C[C@H](N)[C@@H](O)[C@H](C)O1 [DOX, (8S,10S)-10-(((2R,4S,5R,6S)-4-amino-5-hydroxy-6-methyltetrahydro-2H-pyran-2-yl)oxy)-6,8,11-trihydroxy-8-(2-hydroxyacetyl)-1-methoxy-7,8,9,10-tetrahydrotetracene-5,12-dione]	selectively activate	interfered with mouse ovarian cyclicity	remarkably reduced	significantly increased	6	significantly changed; also recorded: activated	hyper-phosphorylated	significantly induced	selectively increased; also recorded: selective hyper-phosphorylation	–	–	–	–	–	–	–	–	–	–
O=C1c2ccccc2-c2n[nH]c3cccc1c23 [SP600125, dibenzo[cd,g]indazol-6(2H)-one]	–	–	–	–	–	–	–	–	–	comparable ovarian cyclicity to the control group	comparable ovarian cyclicity to the control group	prevented the transcriptional induction	prevented the transcriptional induction	prevented the transcriptional induction	significantly ameliorated; also recorded: prevented DOX-induced primordial follicle loss	did not affect	effectively prevented the reduction	effectively prevented; also recorded: blocked the phosphorylation	blocked the phosphorylation

Reference: patent publication US20230062911A1, “COMPOSITIONS AND METHODS FOR TREATING, PREVENTING, AND/OR AMELIORATING CHEMOTHERAPY-INDUCED PREMATURE OVARIAN FAILURE (POF)” (Rutgers, The State University of New Jersey, priority 2021, published 2023)
